Measured values reported in patent publication EP0336132A1, “1-Phenylpropyl compounds” (Byk Gulden Lomberg Chemische Fabrik GmbH, priority 1988, dated 1989).
Like-named read-outs stand apart in the source and are kept apart here.

System: genetisch hypertonen Ratten
Assay: Antihypertensive effect in the spontaneously hypertensive rat, systolic blood pressure by tail cuff after oral dosing
Assay type: in vivo, Ratte
Conditions: male SHR/N/Ibm/Bm rats, N=6, mean of day 1 and 2; for BP (% Änderung vs. Kontrolle), Mittelwert für Meßzeitpunkte: Stunden nach Gabe (1. und 2. Tag) 2h / BP (% Änderung vs. Kontrolle), Mittelwert für Meßzeitpunkte: Stunden nach Gabe (1. und 2. Tag) 6h / change in vivo at 25 µmol/kg: 25 µmol/kg p.o. once daily on two consecutive days; for change in vivo at 25 µmol/kg / change in vivo at 10 µmol/kg: Rattus norvegicus, po; for change in vivo at 10 µmol/kg: 10 µmol/kg p.o. once daily on two consecutive days
From the text: Die antihypertensive Wirksamkeit der erfindungsgemäßen Verbindungen kann am Modell der spontan hypertonen Ratte nachgewiesen werden.
Zur Bestimmung der antihypertensiven Wirkung werden die unten aufgeführten Verbindungen in den angegebenen Dosen an zwei aufeinander folgenden Tagen an je 6 männlichen Ratten (Stamm SHR/N/Ibm/Bm, 250-350 g) mit genetisch bedingtem Hochdruck (systolischer Blutdruck > 180 mmHg) täglich einmal mittels Schlundsonde verabfolgt. Die Messung des Blutdrucks erfolgt jeweils 2, 6 und 24 Stunden nach Substanzgabe.
Die Blutdruckmessung wird in einer Wärmekammer bei 36°C vorgenommen, um eine bessere Durchblutung der Schwanzarterie zu erreichen. Hierzu werden die Tiere in perforierte Lochblechkäfige verbracht und 20 - 40 Min. nach Beginn der Aufwärmung gemessen. Zur Messung des systolischen arteriellen Drucks wird eine ringförmige Manschette mit aufblasbarer Gummimembran zur Unterbindung der Durchblutung und ein ringförmiger Piezokristallaufnehmer zur Erfassung der Pulswellen auf den Schwanz aufgeschoben. Nach erfolgter Unterbindung des Blutstroms in der Schwanzarterie wird der Manschettendruck kontinuierlich reduziert. Die Wiederkehr der Pulswellen bei Druckablassen wird automatisch als systolischer Blutdruck erkannt und ausgedruckt (Bühler, R. et al.: Microprocessor-based automation of blood pressure measurement in the conscious rat. Proceedings of the 4th international symposium on rats with spontaneous hypertension and related studies, Rascher, R. et al. (Eds.), Schattauer Verlag, Stuttgart, New York, 1982, S. 410-413). Pulssignale und Druckverlauf werden zur Auswertung graphisch aufgezeichnet.
Zur Gewöhnung an den Meßvorgang werden die Tiere vor Substanzprüfung 14 Tage trainiert. In der zweiten Trainingswoche werden Blutdruck-Vorwerte erhoben. Tiergruppen, die Substanz erhalten, werden gegen eine Kontrollgruppe geprüft. In der anschließenden Tabelle werden die untersuchten Verbindungen durch laufende Nummern gekennzeichnet, die mit den jeweiligen Beispielnummern übereinstimmen. Bei getrennten Diastereomeren ist der Drehwert des untersuchten Diastereomers angegeben.
Tabelle I gibt für die Vertreter der erfindungsgemäßen Verbindungen die prozentuale Senkung des Blutdrucks (BP) nach oraler Verabreichung bei der Ratte wieder.
%-Änderungen (BP) an genetisch hypertonen Ratten nach täglich einmaliger p.o.-Applikation an zwei aufeinanderfolgenden Tagen (N=6/Dosis).

[1] = 2 h, 2h after dosing, read-out: BP (% Änderung vs. Kontrolle), Mittelwert für Meßzeitpunkte: Stunden nach Gabe (1. und 2. Tag) 2h
[2] = 6 h, 6h after dosing, read-out: BP (% Änderung vs. Kontrolle), Mittelwert für Meßzeitpunkte: Stunden nach Gabe (1. und 2. Tag) 6h
[3] = 24 h, 24h after dosing, read-out: BP (% Änderung vs. Kontrolle), Mittelwert für Meßzeitpunkte: Stunden nach Gabe (1. und 2. Tag) 24h

Structure (SMILES): CCOC(=O)C1=C(C)NC(C)=C(C(=O)O[C@H](c2ccccc2)[C@H](C)N(C)C)C1c1cccc([N+](=O)[O-])c1 (single isomer, unassigned) [Beispiel 1b]
- BP (% Änderung vs. Kontrolle), Mittelwert für Meßzeitpunkte: Stunden nach Gabe (1. und 2. Tag) 2h (2h after dosing): -40,0%
- BP (% Änderung vs. Kontrolle), Mittelwert für Meßzeitpunkte: Stunden nach Gabe (1. und 2. Tag) 6h (6h after dosing): -30,3%

Structure (SMILES): CN[C@@H](C)[C@@H](OC(=O)C1=C(C)NC(C)=C(C(=O)OC)C1c1cccc([N+](=O)[O-])c1)c1ccccc1 (single isomer, unassigned) [9 (-66,3°)]
- change in vivo at 25 µmol/kg [1]: -55%
- change in vivo at 25 µmol/kg [2]: -49.5%

Structure (SMILES): COC(=O)C1=C(C)NC(C)=C(C(=O)O[C@H](c2ccccc2)[C@H](C)N(C)Cc2cc([N+](=O)[O-])ccc2OC)C1c1cccc([N+](=O)[O-])c1 (single isomer, unassigned) [Beispiel 19]
- change in vivo at 10 µmol/kg [1]: -42%
- change in vivo at 10 µmol/kg [2]: -23.5%
- change in vivo at 10 µmol/kg [3]: -10.5%

Structure (SMILES): CN[C@H](C)[C@@H](OC(=O)C1=C(C)NC(C)=C(C(=O)OC)C1c1cccc([N+](=O)[O-])c1)c1ccccc1 (single isomer, unassigned) [7 (-88°)]
- change in vivo at 25 µmol/kg [1]: -56%
- change in vivo at 25 µmol/kg [2]: -46%
- change in vivo at 25 µmol/kg [3]: -11.5%

Structure (SMILES): CN[C@H](C)[C@H](OC(=O)C1=C(C)NC(C)=C(C(=O)OC)C1c1cccc([N+](=O)[O-])c1)c1ccccc1 (single isomer, unassigned) [10 (+165,5°)]
- change in vivo at 25 µmol/kg [1]: -52%
- change in vivo at 25 µmol/kg [2]: -39.5%

Structure (SMILES): CCN(C)[C@@H](C)[C@H](OC(=O)C1=C(C)NC(C)=C(C(=O)OC)C1c1cccc([N+](=O)[O-])c1)c1ccccc1 (single isomer, unassigned) [Beispiel 12]
- change in vivo at 25 µmol/kg [1]: -48.5%
- change in vivo at 25 µmol/kg [2]: -38%

Structure (SMILES): COC(=O)C1=C(C)NC(C)=C(C(=O)O[C@@H](c2ccccc2)[C@@H](C)N)C1c1cccc([N+](=O)[O-])c1 (single isomer, unassigned) [17 (-104,3°)]
- change in vivo at 25 µmol/kg [1]: -56%
- change in vivo at 25 µmol/kg [2]: -47%
- change in vivo at 25 µmol/kg [3]: -14.5%

Structure (SMILES): CCOC(=O)C1=C(C)NC(C)=C(C(=O)O[C@H](c2ccccc2)[C@H](C)N(C)C)C1c1cccc([N+](=O)[O-])c1 (single isomer, unassigned) [Beispiel 1a]
- BP (% Änderung vs. Kontrolle), Mittelwert für Meßzeitpunkte: Stunden nach Gabe (1. und 2. Tag) 2h (2h after dosing): -47,5%
- BP (% Änderung vs. Kontrolle), Mittelwert für Meßzeitpunkte: Stunden nach Gabe (1. und 2. Tag) 6h (6h after dosing): -44,5%

Structure (SMILES): COC(=O)C1=C(C)NC(C)=C(C(=O)O[C@H](c2ccccc2)[C@H](C)N(C)Cc2ccccc2)C1c1cccc([N+](=O)[O-])c1 (single isomer, unassigned) [Beispiel 11]
- change in vivo at 25 µmol/kg [1]: -53.5%
- change in vivo at 25 µmol/kg [2]: -48%

Structure (SMILES): COC(=O)C1=C(C)NC(C)=C(C(=O)O[C@H](c2ccccc2)[C@H](C)N(C)CC=Cc2ccccc2)C1c1cccc([N+](=O)[O-])c1 (single isomer, unassigned) [Beispiel 14]
- change in vivo at 25 µmol/kg [1]: -51.5%
- change in vivo at 25 µmol/kg [2]: -41.5%

Structure (SMILES): COC(=O)C1=C(C)NC(C)=C(C(=O)O[C@H](c2ccccc2)[C@@H](C)N(C)Cc2cc(OC)c(OC)c(OC)c2)C1c1cccc([N+](=O)[O-])c1 (single isomer, unassigned) [Beispiel 15]
- change in vivo at 25 µmol/kg [1]: -62.5%
- change in vivo at 25 µmol/kg [2]: -56%
- change in vivo at 25 µmol/kg [3]: -37%

Structure (SMILES): CCOC(=O)C1=C(C)NC(C)=C(C(=O)O[C@@H](c2ccccc2)[C@@H](C)N(C)C)C1c1cccc([N+](=O)[O-])c1 (single isomer, unassigned) [Beispiel 2b]
- change in vivo at 25 µmol/kg [1]: -40%
- change in vivo at 25 µmol/kg [2]: -34.3%

Structure (SMILES): COC(=O)C1=C(C)NC(C)=C(C(=O)O[C@H](c2ccccc2)[C@H](C)N)C1c1cccc([N+](=O)[O-])c1 (single isomer, unassigned) [16 (+216,4°)]
- change in vivo at 25 µmol/kg [1]: -59%
- change in vivo at 25 µmol/kg [2]: -56.5%
- change in vivo at 25 µmol/kg [3]: -21.5%

Structure (SMILES): CN[C@@H](C)[C@H](OC(=O)C1=C(C)NC(C)=C(C(=O)OC)C1c1cccc([N+](=O)[O-])c1)c1ccccc1 (single isomer, unassigned) [8 (+202,6°)]
- change in vivo at 25 µmol/kg [1]: -55%
- change in vivo at 25 µmol/kg [2]: -43%
- change in vivo at 25 µmol/kg [3]: -10.5%
